Experimental data reported in US9763961B2, “Compositions that modulate the activity of estrogen receptors and estrogen-related receptors and methods for use” (CITY OF HOPE, priority 2005, dated 2017).

Columns and labels:
[1] = target: T1, aromatase in MCF-7 aro cells (Homo sapiens, UniProt P11511); test: In-cell aromatase assay ([3H] H2O release) in MCF-7 aro cells; format: cell-based; details: 10 μM, 24 h, FIG. 6B
T1 construct: expressed in transfected cells
T1 sequence (P11511 1-503): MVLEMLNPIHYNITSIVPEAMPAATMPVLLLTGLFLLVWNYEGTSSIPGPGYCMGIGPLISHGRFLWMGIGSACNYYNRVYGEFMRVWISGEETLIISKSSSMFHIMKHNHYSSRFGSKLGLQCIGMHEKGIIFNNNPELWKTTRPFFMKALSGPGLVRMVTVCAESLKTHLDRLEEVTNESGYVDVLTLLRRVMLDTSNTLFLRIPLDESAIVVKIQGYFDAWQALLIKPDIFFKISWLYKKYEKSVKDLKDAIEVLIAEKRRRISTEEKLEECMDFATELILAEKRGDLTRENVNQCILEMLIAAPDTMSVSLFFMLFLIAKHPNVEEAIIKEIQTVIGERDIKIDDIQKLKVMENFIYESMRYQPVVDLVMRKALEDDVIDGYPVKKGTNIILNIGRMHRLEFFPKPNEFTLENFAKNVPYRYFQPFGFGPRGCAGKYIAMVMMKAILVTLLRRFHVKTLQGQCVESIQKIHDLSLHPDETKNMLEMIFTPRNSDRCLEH
Protocol: (§1) To evaluate the effect of chalcones on aromatase activity, we performed both in vitro assay and in-cell assay with chalcones. […] In addition, MCF-7 aro cells, which are stable aromatase-expressing breast cancer cell line, were incubated with chalcones.
(§2) Referring to FIG. 6, the effect of Compound No. 1-9 on aromatase activity was investigated by both in vitro inhibition assay (A) and in-cell aromatase assay (B; MCF-7 aro cells, C; HepG2 cells, D; SK-BR-3 cells). Referring to FIG. 6A, aromatase inhibition study with Compound No. 1-9 was performed on a human placental microsomal aromatase preparation using the assay procedures described in (9). Referring to FIG. 6B, MCF-7 aro cells, which are stable aromatase-expressing cell line generated in our laboratory (10), were incubated with 10 μM of Compound No. 1-9. After 24 h incubation, aromatase activity was measured by [3H] H20 release method. HepG2 cells, as shown in FIG. 6C and SK-BR-3 cells as shown in FIG. 6D were also incubated with Compound No. 1-9 for 24 h, and aromatase activities were measured. Values represent the mean±SD.

[2] = tested on: aromatase in SK-BR-3 cells; test: In-cell aromatase assay in SK-BR-3 cells; format: cell-based; details: 24 h, FIG. 6D
Protocol: as §1, §2

[3] = tested on: ERRα with coactivators GRIP-1 and PGC-1a; test: Coactivator (GRIP-1, PGC-1a)-induced ERRα activity, Gal4-TK-Luc cotransfection in HeLa cells; format: cell-based; details: GRIP-1 and PGC-1a cotransfection, FIG. 3
Text: To further confirm the antagonism of chalcones, the effect of Compound No. 1-9 on the interaction between ERRα and coactivators (GRIP-1 and PGC-1a) were investigated. HeLa cells were cotransfected with GAL4-binding site containing luciferase reporter and the expression plasmids for ERRα, GRIP-1 and PGC-1a. The ERRα activity was induced 5-fold and 13-fold by cotransfection with GRIP-1 and PGC-1 a, respectively.
Referring to FIG. 3, cotransfection experiments with GAL4-binding site containing luciferase reporter (Gal4-TK-Luc; 0.5 μg) and the expression plasmids for ERRα (pM-ERRα LBD; 0.5 μg), GRIP-1 (pSG5-GRIP-1; 0.5 μg) and PGC-1a(pSG5-PGC-1α; 0.25 μg) were performed in HeLa cells. Values represent the mean±SD.

[4] = tested on: promoter I.3 of human aromatase gene (through ERRα); test: Aromatase promoter I.3 luciferase reporter with pSG5-ERRα in HepG2 cells; format: cell-based; details: 24 h, FIG. 5
Protocol: Aromatase expression is regulated by several promoters, including ERRα modulating promoter I.3. In order to evaluate the effect of chalcones on aromatase activity through ERRα, transient transfection experiments using luciferase reporter plasmid containing a regulatory element S1 and promoter I.3 of human aromatase gene were performed in HepG2 cells. The transfected cells were incubated with chalcones, and luciferase activity was measured.
Referring to FIG. 5, HepG2 cells were cotransfected with pSG5-ERRα (2 μg) and luciferase reporter plasmid containing S1 and promoter I.3 of human aromatase gene (0.5 μg). The transfected cells were incubated with Compound No. 1-9 for 24 h. After cells were washed with 1× PBS, luciferase activity was measured. Values represent the mean±SD.

[5] = target: T2, human placental microsomal aromatase (Homo sapiens, UniProt P11511); test: In vitro aromatase inhibition assay on human placental microsomal aromatase preparation; format: biochemical; details: increasing concentrations (200 pM-200 mM), FIG. 6A
T2 construct: performed on a human placental microsomal aromatase preparation; from tissue; host or cells: human placenta, microsomes
T2 sequence (P11511 1-503): T1 sequence (P11511 1-503)
Protocol: as §1, §2

Effect on aromatase activity, in-cell assay, MCF-7 aro cells [1]: did not inhibit aromatase activity
Effect on aromatase activity, in vitro assay [5]: did not inhibit aromatase activity
SMILES: COc1cccc(/C=C/C(=O)c2ccc(O)cc2O)c1OC [Compound No. 1-9, 2′,4′-Dihydroxy-2,3-dimethoxychalcone]
Effect on aromatase activity, SK-BR-3 cells [2]: inhibited aromatase activity in a dose-dependent manner
Effect on coactivator-induced ERRα activity [3]: suppressed the coactivator-induced ERRα activity in a dose-dependent manner
Effect on promoter I.3 activity [4]: suppressed the promoter I.3 activity in a dose-dependent manner
